Measurements published in patent US20250353827A1, “INDOLINE DERIVATIVES AS SEROTONERGIC AGENTS USEFUL FOR THE TREATMENT OF DISORDERS RELATED THERETO” (MINDSET PHARMA INC., priority 2022, published 2025).
Values joined by “and” are separate entries in the source; they are usually repeats but may differ in a detail not shown here. Identical values can stand only once. Like-named read-outs stand apart in the source and are kept apart here.

Assays:
[1] = biological target: T1, human 5-HT2A (h5-HT2A) receptor (Homo sapiens, UniProt P28223); assay: FLIPR assay, human 5-HT2A receptor under agonist mode; format: cell-based; settings: for RFU@10 μM: RFU=Fmax−Fmin
T1 construct: expressed in transfected cells; cultured under G418 and hygromycin B selection
T1 sequence (P28223 whole entry): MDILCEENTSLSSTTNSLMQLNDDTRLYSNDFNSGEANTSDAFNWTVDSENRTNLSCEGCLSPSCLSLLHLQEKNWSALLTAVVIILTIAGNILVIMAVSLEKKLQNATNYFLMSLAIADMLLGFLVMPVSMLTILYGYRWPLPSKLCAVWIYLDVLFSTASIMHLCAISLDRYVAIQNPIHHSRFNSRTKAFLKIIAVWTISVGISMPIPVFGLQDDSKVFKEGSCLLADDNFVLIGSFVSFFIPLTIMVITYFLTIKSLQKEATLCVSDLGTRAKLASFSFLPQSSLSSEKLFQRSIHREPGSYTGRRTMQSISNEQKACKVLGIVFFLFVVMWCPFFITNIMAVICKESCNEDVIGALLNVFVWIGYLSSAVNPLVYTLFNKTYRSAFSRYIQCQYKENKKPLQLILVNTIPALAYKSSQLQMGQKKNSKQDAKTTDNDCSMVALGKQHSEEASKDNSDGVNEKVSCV
Protocol: I. Assessment of the Effect of Exemplary Compounds of Formula I Targeting on Human 5-HT2A (h5-HT2A) Receptor Under Agonist Mode
• 1. Cells were cultured in cell culture medium (DMEM containing 10% FBS, 1×penicillin-streptomycin 300 μg/ml G418 and 100 μg/ml hygromycin B) at 37° C., 5% (v/v) CO2. • 2. One day before the assays, the cells were detached using TrypLE™ Express and cells were counted using cell counter. Only cells with >85% viability were used for the assay. • 3. 20000 cells/well were seeded in 30 μl/well culture medium to a 384-well cell plate and cells were incubated overnight at 37° C., 5% (v/v) CO2. • 4. On the assay day, 2×dye solution was prepared following the manual of the FLIPR® Calcium 6 Assay Kit: i. The dye was diluted with assay buffer (20 mM HEPES in 1× HBSS, PH7.4); ii. Probenecid was added to the final concentration of 5 mM; iii. Vortex vigorously for 1-2 minutes. • 5. Medium was removed from cell plate by flicking the cell plate on towel papers. • 6. 10 μl of assay buffer and 10 μl of 2×dye solution was added to each well of the cell plate. • 7. The cell plate was placed on plate shaker, the plate was agitated at 600 rpm for 2 minutes. The plate was incubated at 37° C. for 2 hours followed by additional 15-minute incubation at 25° C. • 8. 3×compound in assay buffer was prepared: a. Reference compounds were diluted to required concentration with DMSO. The compounds were added to a 384-well compound plate; b. Serial dilutions were performed; c. 10 mM test compounds were added to the compound plate, and 3-fold serial dilutions were performed. d. Transfer 60 nl/well of compounds from source plate to a 384-well compound plate (Corning, 3657) by using an Echo; e. Add 20 μl/well assay buffer to the compound plate; f. Mix the plate on plate shaker for 2 mins; • 9. The cell plate, compound plate and tips were put into FLIPR, 10 μl of 3× compound was transferred to the cell plate per well with FLIPR.
• i. The normalized fluorescence reading (RFU) was calculated as shown below, where Fmax and Fmin stand for maximum and minimum of calcium signal during defined time window: RFU=Fmax−Fmin. • ii. Calculate the percentage activation using following equation:
[formula] • Iii. Calculate EC50 by fitting % activation against log of compound concentrations with Hill equation using XLfit.
Exemplary compounds of Formula I were evaluated functionally using FLIPR assay for their effect on h5-HT2A receptor under agonist mode.

[2] = Liver microsomes stability, human; settings: for Predicted hepatic CL: human liver microsomes
Protocol: (§1) The objective of this study was to estimate in vitro metabolic stability of representative compounds of the application in pooled human and male mouse liver microsomes. The concentrations of parent compounds in reaction systems were evaluated by LC-MS/MS for estimating the stability in pooled human and male mouse liver microsomes. The in vitro intrinsic clearances of test compounds were determined as well.
(§2) A master solution in the “Incubation Plate” containing phosphate buffer, ultra-pure H2O, MgCl2 solution and liver microsomes was made according to Table 3. The mixture was pre-warmed at 37° C. water bath for 5 minutes.
(§3) 40 μL of 10 mM NADPH solution was added to each well. The final concentration of NADPH was 1 mM. The negative control samples were prepared by replacing NADPH with 40 μL of ultra-pure H2O. Samples were prepared in duplicate. Negative controls were prepared in singlet.
(§4) The reaction was started with the addition of 4 μL of 200 μM test compounds or control compounds to each master solution to get the final concentration of 2 μM. This study was performed in duplicate.
(§5) Aliquots of 50 μL were taken from the reaction solution at 0, 15, 30, 45 and 60 minutes. The reaction solutions were stopped by the addition of 4 volumes of cold methanol with IS (100 nM alprazolam, 200 nM imipramine, 200 nM labetalol and 2 μM ketoprofen). Samples were centrifuged at 3,220 g for 40 minutes. Aliquot of 90 μL of the supernatant was mixed with 90 μL of ultra-pure H2O and then was used for LC-MS/MS analysis.
(§6) LC/MS analysis was performed for all samples from this study using a Shimadzu liquid chromatograph separation system equipped with degasser DGU-20A5R; solvent delivery unit LC-30AD; system controller SIL-30AC; column oven CTO-30A; CTC Analytics HTC PAL System. Mass spectrometric analysis was performed using a Triple Quad™ 5500 instrument.
(§7) All calculations were carried out using Microsoft Excel. Peak areas were determined from extracted ion chromatograms. The slope value, k, was determined by linear regression of the natural logarithm of the remaining percentage of the parent drug vs. incubation time curve.
(§8) The in vitro half-life (in vitro t1/2) was determined from the slope value:
(§9) Conversion of the in vitro t1/2 (min) into the in vitro intrinsic clearance (in vitro CLint, in μL/min/mg proteins) was done using the following equation (mean of duplicate determinations): […]

[3] = Liver microsomes stability, mouse
Protocol: as §1, §2, §3, §4, §5, §6, §7, §8, §9

[4] = Liver microsomes stability, rat

Structure (SMILES)	RFU@10 μM ([1]; 5-HT2A (FLIPR))	Predicted hepatic CL [2] [mL/min/kg]	Remaining Percentage ([2]; human, With NADPH, 0 min) [%]	Remaining Percentage ([2]; human, With NADPH, 30 min) [%]	Remaining Percentage ([2]; human, With NADPH, 60 min) [%]	Remaining Percentage ([2]; human, Without NADPH, 0 min) [%]	Remaining Percentage ([2]; human, Without NADPH, 30 min) [%]	Remaining Percentage ([2]; human, Without NADPH, 60 min) [%]	half-life at 2 μM ([3]; male, mouse, microsomes) [min]	microsomal CLint at 2 μM ([3]; male, mouse, microsomes) [µL/min/mg]	Predicted hepatic CL ([3]; mouse liver microsomes) [mL/min/kg]	Remaining Percentage ([3]; mouse, With NADPH, 0 min) [%]	Remaining Percentage ([3]; mouse, With NADPH, 30 min) [%]	Remaining Percentage ([3]; mouse, With NADPH, 60 min) [%]	Remaining Percentage ([3]; mouse, Without NADPH, 0 min) [%]	Remaining Percentage ([3]; mouse, Without NADPH, 30 min) [%]	Remaining Percentage ([3]; mouse, Without NADPH, 60 min) [%]	Remaining Percentage ([4]; rat, With NADPH, 0 min) [%]	Remaining Percentage ([4]; rat, With NADPH, 30 min) [%]	Remaining Percentage ([4]; rat, With NADPH, 60 min) [%]	other results
CN(C)CCc1c[nH]c2ccccc12 [DMT, N,N-dimethyltryptamine, reference compound]	381																				EC50 ([1]; EC50, 5-HT2A (FLIPR)): 364 nM
CN(C)CCC1CNc2ccccc21 (stereo not shown) [II-2, 2-(Indolin-3-yl)-N,N-dimethylethan-1-amine]	544	9.09	100.00	87.48	67.85	100.00	100.69	86.47	36.7	37.7	58.25	100.00	57.37	32.23	100.00	99.08	86.24	100.00	26.32	10.29	EC50 ([1]; 5-HT2A (FLIPR), read-out: EC50): 1230 nM; CLint scaled at 2 μM ([2]; human, pooled liver microsomes): 16.2 mL/min/kg; half-life at 2 μM ([2]; human, pooled liver microsomes): 107 min; microsomal CLint at 2 μM ([2]; human, pooled liver microsomes): 12.9 µL/min/mg; CLint scaled at 2 μM ([3]; male, mouse, microsomes): 165 mL/min/kg; Remaining Percentage ([4]; rat, Without NADPH, 0 min): 100.00%; Remaining Percentage ([4]; rat, Without NADPH, 30 min): 92.41%; Remaining Percentage ([4]; rat, Without NADPH, 60 min): 83.54%; CLint scaled at 2 μM ([4]; rat, liver microsomes): 136 mL/min/kg; Predicted hepatic CL ([4]; rat, liver microsomes): 39.25 mL/min/kg; half-life at 2 μM ([4]; rat, liver microsomes): 18.3 min; microsomal CLint at 2 μM ([4]; rat, liver microsomes): 75.8 µL/min/mg
CN(C)CCc1c[nH]c2cccc(O)c12 [Psilocin, psilocin, reference compound]	416 and 308																				
O=C(O)Cc1ccccc1Nc1c(Cl)cccc1Cl [Diclofenac]		18.43	100.00	4.80	1.80	100.00	91.86	91.86	43.9	31.6	54.52	100.00	51.50	38.74	100.00	105.81	102.49	100.00	10.72	5.82	Scaled-up CLint ([3]; mouse liver microsomes): 138.28 mL/min/kg; T1/2 ([4]; rat liver microsomes, 2 μM, 0.5 mg/mL): 14.62 min; Remaining Percentage ([4]; rat, Without NADPH, 0 min): 100.00%; Remaining Percentage ([4]; rat, Without NADPH, 30 min): 100.00%; Remaining Percentage ([4]; rat, Without NADPH, 60 min): 96.90%; Predicted hepatic CL ([4]; rat, liver microsomes): 41.66 mL/min/kg; microsomal CLint at 2 μM ([4]; rat, liver microsomes): 94.8 µL/min/mg
